From patent publication US20120058499A1, “Bioluminescent Detection of Protease Activity” (priority 2010, published 2012)

Columns and labels:
[1] = target: USP14 (Homo sapiens, UniProt P54578); experiment: Platform comparison of DUB substrates, signal to background; type: biochemical; conditions: DUB 10 nM; signal at 30 minutes; Ub-LUC 100 nM, DUB-Glo substrate 20 μM, Ub-AMC/Ub-rho 250 nM
Protocol: (§1) For Ub-AMC and Ub-Rhodamine110, all enzymes were diluted into 50 mM Tris, pH 8.0, 5 mM DTT, 0.05% CHAPS to a final concentration of 10 nM. […] Either Ub-AMC or Ub-Rhodamine110 (final reaction concentration equal to 250 nM) were diluted into 50 mM Tris, pH 8.0, 5 mM DTT, 0.05% (w/v) CHAPS. […] For Ub-Rhodamine110, fluorescence was monitored with filters corresponding to excitation at 485 nm and emission at 531 nm.

[2] = target: JosD1 (Homo sapiens, UniProt Q15040); experiment: as above; type: biochemical; conditions: DUB 10 nM; signal at 30 minutes; Ub-LUC 100 nM, DUB-Glo substrate 20 μM, Ub-AMC/Ub-rho 250 nM
Protocol: as §1

[3] = target: T1, Otub2 (Homo sapiens, UniProt Q96DC9); experiment: as above; type: biochemical; conditions: DUB 10 nM; signal at 30 minutes; Ub-LUC 100 nM, DUB-Glo substrate 20 μM, Ub-AMC/Ub-rho 250 nM
T1 sequence (Q96DC9 1-234): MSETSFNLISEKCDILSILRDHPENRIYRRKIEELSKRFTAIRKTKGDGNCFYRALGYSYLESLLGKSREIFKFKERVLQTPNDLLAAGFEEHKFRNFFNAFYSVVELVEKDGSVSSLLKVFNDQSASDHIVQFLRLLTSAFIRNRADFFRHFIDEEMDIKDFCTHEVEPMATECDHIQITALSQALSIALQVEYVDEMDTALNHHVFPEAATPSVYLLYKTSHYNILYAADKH
Protocol: as §1

[4] = target: T2, UCHL5 (Homo sapiens, UniProt Q9Y5K5); experiment: as above; type: biochemical; conditions: DUB 10 nM; signal at 30 minutes; Ub-LUC 100 nM, DUB-Glo substrate 20 μM, Ub-AMC/Ub-rho 250 nM
T2 sequence (Q9Y5K5 1-329): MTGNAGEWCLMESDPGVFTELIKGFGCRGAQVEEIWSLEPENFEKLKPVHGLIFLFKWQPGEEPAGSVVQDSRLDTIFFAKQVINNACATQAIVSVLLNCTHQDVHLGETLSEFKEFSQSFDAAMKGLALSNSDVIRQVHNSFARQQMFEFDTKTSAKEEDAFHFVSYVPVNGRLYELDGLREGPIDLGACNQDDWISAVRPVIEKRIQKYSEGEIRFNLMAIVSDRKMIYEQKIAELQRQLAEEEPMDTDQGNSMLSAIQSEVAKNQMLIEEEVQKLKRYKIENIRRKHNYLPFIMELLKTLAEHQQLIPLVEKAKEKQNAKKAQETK
Protocol: as §1

[5] = target: T3, JosD2 (Homo sapiens, UniProt Q8TAC2); experiment: as above; type: biochemical; conditions: DUB 10 nM; signal at 30 minutes; Ub-LUC 100 nM, DUB-Glo substrate 20 μM, Ub-AMC/Ub-rho 250 nM
T3 sequence (Q8TAC2 1-188): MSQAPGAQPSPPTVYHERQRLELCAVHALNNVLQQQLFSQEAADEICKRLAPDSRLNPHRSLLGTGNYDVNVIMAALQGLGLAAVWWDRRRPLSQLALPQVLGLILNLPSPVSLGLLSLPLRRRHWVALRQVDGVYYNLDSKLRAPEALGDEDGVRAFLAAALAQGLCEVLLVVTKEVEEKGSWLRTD
Protocol: as §1

[6] = target: T4, Ataxin3-like (Homo sapiens, UniProt Q9H3M9); experiment: as above; type: biochemical; conditions: DUB 10 nM; signal at 30 minutes; Ub-LUC 100 nM, DUB-Glo substrate 20 μM, Ub-AMC/Ub-rho 250 nM
T4 sequence (Q9H3M9 1-355): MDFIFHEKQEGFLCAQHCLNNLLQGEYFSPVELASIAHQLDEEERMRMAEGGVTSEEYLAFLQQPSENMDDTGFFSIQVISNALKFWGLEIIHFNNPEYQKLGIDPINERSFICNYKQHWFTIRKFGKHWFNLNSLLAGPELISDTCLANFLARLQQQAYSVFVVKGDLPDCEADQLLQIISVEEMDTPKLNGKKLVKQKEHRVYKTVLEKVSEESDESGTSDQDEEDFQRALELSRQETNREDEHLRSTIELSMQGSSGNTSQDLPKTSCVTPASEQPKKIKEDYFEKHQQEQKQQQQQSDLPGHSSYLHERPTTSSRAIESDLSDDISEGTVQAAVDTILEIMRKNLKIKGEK
Protocol: as §1

[7] = target: Ataxin3 (Homo sapiens, UniProt P54252); experiment: as above; type: biochemical; conditions: DUB 10 nM; signal at 30 minutes; Ub-LUC 100 nM, DUB-Glo substrate 20 μM, Ub-AMC/Ub-rho 250 nM
Ataxin3, sequence (P54252 whole entry, species assumed): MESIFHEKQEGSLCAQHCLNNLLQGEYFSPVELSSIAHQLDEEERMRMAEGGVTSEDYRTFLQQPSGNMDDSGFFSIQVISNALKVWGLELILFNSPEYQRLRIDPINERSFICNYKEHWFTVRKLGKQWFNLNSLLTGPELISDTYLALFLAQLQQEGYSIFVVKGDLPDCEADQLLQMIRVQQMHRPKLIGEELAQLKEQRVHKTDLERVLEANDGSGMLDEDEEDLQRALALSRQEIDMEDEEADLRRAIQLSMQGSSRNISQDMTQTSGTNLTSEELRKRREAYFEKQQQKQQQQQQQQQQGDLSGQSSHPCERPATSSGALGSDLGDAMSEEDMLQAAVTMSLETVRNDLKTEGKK
Protocol: as §1

[8] = target: T5, AMSH (Homo sapiens, UniProt O95630); experiment: as above; type: biochemical; conditions: DUB 10 nM; signal at 30 minutes; Ub-LUC 100 nM, DUB-Glo substrate 20 μM, Ub-AMC/Ub-rho 250 nM
T5 sequence (O95630 1-424): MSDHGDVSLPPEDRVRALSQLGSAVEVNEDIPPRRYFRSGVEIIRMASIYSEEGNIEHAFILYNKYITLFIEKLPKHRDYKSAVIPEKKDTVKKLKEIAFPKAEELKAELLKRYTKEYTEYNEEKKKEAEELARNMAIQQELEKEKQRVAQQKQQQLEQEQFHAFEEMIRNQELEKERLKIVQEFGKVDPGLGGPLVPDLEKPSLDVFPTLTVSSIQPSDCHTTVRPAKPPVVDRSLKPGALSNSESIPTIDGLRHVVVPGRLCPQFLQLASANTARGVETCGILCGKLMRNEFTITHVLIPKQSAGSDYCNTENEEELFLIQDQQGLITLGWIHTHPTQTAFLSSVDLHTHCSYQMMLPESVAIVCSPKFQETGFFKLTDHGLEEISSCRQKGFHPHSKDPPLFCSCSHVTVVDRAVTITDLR
Protocol: as §1

[9] = target: T6, isopeptidase T (Homo sapiens, UniProt P45974); conditions: Dang et al., 1998; cited from earlier work
T6 sequence (P45974 1-858): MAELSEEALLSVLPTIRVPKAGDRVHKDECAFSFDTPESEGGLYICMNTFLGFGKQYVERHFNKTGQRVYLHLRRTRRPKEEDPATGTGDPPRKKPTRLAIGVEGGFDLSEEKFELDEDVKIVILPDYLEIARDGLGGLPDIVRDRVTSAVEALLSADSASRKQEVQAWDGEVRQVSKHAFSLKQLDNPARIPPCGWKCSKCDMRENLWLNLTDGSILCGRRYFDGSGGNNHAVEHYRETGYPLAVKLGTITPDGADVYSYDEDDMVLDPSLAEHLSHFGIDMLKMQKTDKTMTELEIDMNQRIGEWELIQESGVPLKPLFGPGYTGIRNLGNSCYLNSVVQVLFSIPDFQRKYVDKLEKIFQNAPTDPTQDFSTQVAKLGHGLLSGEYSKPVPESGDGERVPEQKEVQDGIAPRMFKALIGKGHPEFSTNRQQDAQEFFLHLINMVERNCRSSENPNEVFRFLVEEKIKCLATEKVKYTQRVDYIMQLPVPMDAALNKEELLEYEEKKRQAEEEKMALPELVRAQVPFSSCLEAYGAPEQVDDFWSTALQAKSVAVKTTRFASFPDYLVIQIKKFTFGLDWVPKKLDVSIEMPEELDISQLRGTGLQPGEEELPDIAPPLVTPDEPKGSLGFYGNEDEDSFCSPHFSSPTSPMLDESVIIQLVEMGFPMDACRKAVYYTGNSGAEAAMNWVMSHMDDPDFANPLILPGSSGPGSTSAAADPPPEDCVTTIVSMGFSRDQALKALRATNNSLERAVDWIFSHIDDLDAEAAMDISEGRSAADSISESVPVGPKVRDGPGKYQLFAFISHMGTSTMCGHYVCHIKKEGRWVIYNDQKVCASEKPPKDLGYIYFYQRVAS

[10] = tested on: Otub2, JosD1, JosD2, AMSH, Ataxin3, Ataxin3-like, UCHL5, USP20, and USP14; experiment: Substrate comparison on panel of nine isopeptidases; type: biochemical; conditions: seven of nine DUBs (exceptions JosD2 and UCHL5)
Protocol: as §1

USP14, sequence (P54578 whole entry, species assumed): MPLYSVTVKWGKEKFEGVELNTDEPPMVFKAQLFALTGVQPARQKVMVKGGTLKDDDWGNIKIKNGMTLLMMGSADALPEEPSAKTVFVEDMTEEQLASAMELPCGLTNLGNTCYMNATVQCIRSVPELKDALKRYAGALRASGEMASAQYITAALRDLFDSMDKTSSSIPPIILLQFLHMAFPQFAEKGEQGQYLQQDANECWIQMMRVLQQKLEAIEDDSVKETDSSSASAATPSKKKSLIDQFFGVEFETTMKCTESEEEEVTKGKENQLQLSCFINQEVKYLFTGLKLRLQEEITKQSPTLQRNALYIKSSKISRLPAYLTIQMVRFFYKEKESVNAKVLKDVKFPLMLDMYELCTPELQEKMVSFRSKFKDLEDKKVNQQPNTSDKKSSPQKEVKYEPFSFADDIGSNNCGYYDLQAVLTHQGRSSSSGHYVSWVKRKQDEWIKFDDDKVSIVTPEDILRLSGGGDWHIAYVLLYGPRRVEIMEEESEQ

Row | Substance | Signal to Background value [1] | Signal to Background value [2] | Signal to Background value [3] | Signal to Background value [4] | Signal to Background value [5] | Signal to Background value [6] | Signal to Background value [7] | Signal to Background value [8] | relative catalytic efficiency (kcat/Km), fold higher than AMC derivative of Z-Leu-Arg-Gly-Gly peptide [9] [fold] | detectable activity (S/B>3) [10] | detectable activity (S/B>3) ([10]; listed as Ub-Rhodamine110) | detectable activity (S/B>3) ([10]; listed as Ub-rhodamine110)
1 | ubiquitin-7-amino-4-methylcoumarin [Ub-AMC] | 1.0 | 1.1 | 1.2 | 8.1 | 2.1 | 1.1 | 0.9 | 1.0 | ~8000 | little to no detectable activity | – | –
2 | ubiquitin-rhodamine110 [Ub-rho] | – | 1.5 | 1.7 | 103 | 8.2 | 1.6 | 1.3 | 1.2 | – | – | no detectable activity | little to no detectable activity
